Measured values published in ChEMBL document CHEMBL1141438, “Securinega alkaloids from the wood of Securinega suffruticosa var. amamiensis” (J Nat Prod, 2007).
Converted amounts (≈) assume the structure as drawn.

Legend:
KB = assay: Cytotoxicity against human KB cells; format: functional, cell-based
L1210 = assay: Cytotoxicity against mouse L1210 cells; format: functional, cell-based

SMILES | IC50 (KB) [µg/mL] | IC50 (L1210) [µg/mL]
O=C1C=C2C=C[C@@H]3C[C@@]2(O1)[C@H]1C[C@@H](O)CCN31 | 3 (≈ 12.9 µM) | 3.7 (≈ 15.9 µM)
O=C1C=C2C=C[C@@H]3C[C@@]2(O1)[C@@H]1CCCCN1O3 [PHYLLANTIDINE] | > 5 | > 5
CO[C@H]1CCN2[C@@H](C1)[C@]13C[C@H]2[C@@H](OC)CC1=CC(=O)O3 [SECURINEGA AMAMINE B] | > 5 | > 5
CO[C@H]1CC2=CC(=O)O[C@@]23C[C@@H]1N1CCCC[C@@H]13 [SECURINEGA AMAMINE C] | > 5 | > 5
CO[C@H]1CCN2O[C@@H]3C=CC4=CC(=O)O[C@]4(C3)[C@@H]2C1 [SECURINEGA AMAMINE D] | > 5 | > 5
O=C1C=C2C=C[C@@H]3C[C@@]2(O1)[C@H]1CCCCN31 [SECURININE] | 2.2 (≈ 10.1 µM) | 1.9 (≈ 8.74 µM)
